Results: patent US10695406B2, “Modulation of cellular stress using a B-cell oxidative and/or endoplasmic reticulum stress inhibitor and a targeting agent” (THE UNIVERSITY OF QUEENSLAND, priority 2014, dated 2020)

What was measured:
[1] = system: mice with high fat diet-induced obesity (HFDIO); assay: HFDIO Experiment 2: 22 weeks of diet, IL-22 for the last 30 days; format: in vivo, C57BL/6 male mice; details: for Body weight (% original) / Fasting blood glucose / Fasting serum insulin concentration / Fasting serum proinsulin concentration: HFDIO Experiment 2, 22 weeks on HFD
From the text: (§1) All mice were housed in sterilized, filter-topped cages in a conventional clean facility. Six to eight week old C57BL/6 male mice were fed ad libitum on a high fat diet containing 46% of available energy as saturated fat, 34% carbohydrate, 20% protein (Speciality feeds, SF04-027). Or on normal chow containing less than 10% saturated fat (GOLDMIX, 126575). Cages of mice were randomly allocated to the experimental groups by random draw. Investigators were not blinded to treatment by there were no subjective assessments made.
(§2) Total insulin and proinsulin were measured in supernatant from islet cultures or in serum from mice using commercially obtained ELISA kits from MILLIPORE and MERCODIA, respectively. The molar insulin concentration was determined by subtracting the molar proinsulin concentration from molar total insulin, and then the serum proinsulin:insulin ratio was calculated.
From 18-22 weeks of diet, mice were treated (for 30 days) with 20 or 100 ng/g i.p. recombinant murine IL-22 twice weekly (R&D SYSTEMS) or 0.1 mg/mouse irrelevant isotype control antibody, sacrificed and sampled.
Fasted i.p. glucose tolerance tests (2 g/kg glucose) and insulin tolerance tests (0.25 U/kg insulin; Humalog, Lilly) were performed at the times indicated in the Figure Legends. […]

[2] = system: MIN6N8 murine β-cells; assay: ER stress (ERAI reporter of Xbp1-splicing / Xbp1 splicing) in MIN6N8 β-cells; format: cell-based
Procedure: MIN6N8 cells are maintained in line with standard protocols. Cells are transfected with either the ERAI reporter plasmid (F-XBP1ΔDBD-Venus), or the ATF6-GFP plasmid (ADGENE), using LIPFECTAMINE 2000 according to the manufacturer's instructions.
On induction of ER stress, splicing of […] mRNA by IRE1a results in the translation of Venus, but not an active form of XBP1. Fluorescence was measured (excitation: 485 nm; emission: 520 nm) using the POLARstar Omega plate reader and cells were treated 48 h after transfection. The results are normalized with Gapdh expression as fold of vehicle-treated control (Con) cells.
Activation of ATF6 was assessed as follows: the area in pixels per square millimeter co-stained ATF6 and DAPI (blue and green), and total ATF6 staining (green) was determined in 5 fields of view for each section (n=6 for each condition) using IMAGEJ software version 1.45s. Data are presented as the percentage of ATF6 and DAPI co-fluorescence to the total ATF6 fluorescence. Phosphorylation of Ser-51 of eiF2 α was determined by an AlphaScreen assay as per the manufacturer's instructions (PERKIN-ELMER). The Griess reagent method was performed according to the manufacturer's instructions (MOLECULAR PROBES) to assess the intracellular levels of nitric oxide. 5-(and -6-)-carboxy-2,7-dichlorofluorescein diacetate (DCFDA) assay was used to determine the intracellular levels of H2O2 as previously described (Sakon et al., 2003). Cells were treated with glucose or recombinant cytokines at the concentrations indicated in the figure legends, or with 5 μM thapsigargin (SIGMA-ALDRICH) or 10 μg/mL tunicamycin (SIGMA-ALDRICH) or 0.1-0.5 mM Palmitate (SIGMA-ALDRICH) for the times indicated in the legends. ROS was […] using the dihydroethidium (DHE) fluorescent cell-permeable probe (SIGMA-ALDRICH). MIN6N8 cells plated at 2×10^6/mL were incubated with 3 μM DHE and subsequently treated with DMSO (control), 50 ng/mL IL-23 for 30 minutes±[…] IL-22 at the same time or 30 minutes prior to IL-23.
To inhibit transcription factors the following specific inhibitors (and concentrations) were used:
MIN6N8 cells were exposed to a panel of cytokines to determine the effect of each cytokine on ER stress. ER stress was measured using the above-described method. Specifically, the cells were exposed to either a 24 hour treatment of any one of […] glucose (hi glucose), 10 μM H2O2, 0.5 mM palmitic acid or 50 ng/mL cytokines; or a 6 hour treatment with 10 μg/mL tunicamycin or 5 μM thapsigargin.
Experiments to assess ER and/or oxidative stress, and methods of qRT-PCT and/or quantifying gene expression were performed as described for Example 1. Xbp1 splicing is assessed by qRT-PCR, with normalization versus Gapdh, and expression presented as fold of vehicle-treated control cells.

[3] = system: murine islets; assay: Murine islets ex vivo: ER stress, gene expression, insulin and proinsulin secretion; format: cell-based, mice
Procedure: Healthy islets were cultured with 10 μg/mL tunicamycin or 5 μM thapsigargin±IL-22 for 6 hours. Alternatively the islets were cultured in the presence of ER stress-inducing cytokines±IL-22 for 24 hours. The cultures were then cultured consecutively for 30 minutes in 2.8 mM glucose, 20 mM glucose, or a combination of 20 mM glucose and 100 nM GLP-1.
as §1, §2

[4] = healthy islets, co-treatment with ER stress agents

Question: “IL-22: interleukin-22; recombinant murine IL-22 (R&D SYSTEMS) in the mouse experiments” was tested. Which “decrease of serum proinsulin” value ([1]; 100 ng/g) did it give?
Answer: 97%

Question: And the “islet ER stress (Xbp1 splicing)” value ([1]; 100 ng/g)?
Answer: Xbp1 splicing indistinguishable from normal chow islets

Question: And the “body weight during treatment” value ([1]; 20 or 100 ng/g, last 30 days of 22-week HFD)?
Answer: progressively decreased

Question: What about the “Body weight (% original)” value ([1]; 20 ng/g) of the same substance?
Answer: 188 ± 13 % original

Question: And the Fasting blood glucose ([1]; 20 ng/g)?
Answer: 11.3 ± 0.5 mmol/L

Question: What about the “Fasting serum insulin concentration” value ([1]; 20 ng/g) of the same substance?
Answer: 0.7 ± 0.4 ng/mL

Question: And the “Fasting serum proinsulin concentration” value ([1]; 20 ng/g)?
Answer: 14.1 ± 2.9 pmol/L

Question: What about the “Body weight (% original)” value ([1]; 100 ng/g) of the same substance?
Answer: 189 ± 17 % original

Question: And the Fasting blood glucose ([1]; 100 ng/g)?
Answer: 10.6 ± 1.3 mmol/L

Question: And the “Fasting serum insulin concentration” value ([1]; 100 ng/g)?
Answer: 0.5 ± 0.3 ng/mL

Question: What about the “Fasting serum proinsulin concentration” value ([1]; 100 ng/g) of the same substance?
Answer: 4.7 ± 1.8 pmol/L

Question: And the “time until random fed blood glucose decreased to levels of normal chow fed mice” value ([1]; both doses (20 and 100 ng/g))?
Answer: ≤ 7 days

Question: What about the “insulin resistance in ITT” value ([1]; day 16 of therapy) of the same substance?
Answer: no or modest improvement in insulin resistance

Question: What about the “serum total insulin during IPGTT” value ([1]; day 25) of the same substance?
Answer: complete suppression of fasting hyperinsulinemia and normalization of GSIS

Question: And the “glycemic control in IPGTT” value ([1]; day 25 of therapy)?
Answer: glycemic control indistinguishable from control non-obese mice

Question: What about the “insulin resistance in ITT” value ([1]; day 29, both doses) of the same substance?
Answer: insulin resistance had decreased

Question: What about the “serum proinsulin:insulin ratio” value ([1]; end of treatment) of the same substance?
Answer: normalization of the serum proinsulin:insulin ratio

Question: What about the “proinsulin secretion by islets ex vivo” value ([1]; islets from HFD mice treated in vivo, glucose/GLP-1) of the same substance?
Answer: reduced in a dose-dependent manner

Question: And the “islet expression of anti-oxidant genes and Nos2” value ([1]; islets from HFDIO mice treated in vivo)?
Answer: further increased expression of anti-oxidant genes and suppressed Nos2

Question: What about the “insulin secretion in response to glucose by islets ex vivo” value ([1]; islets from obese mice treated for 30 days) of the same substance?
Answer: correction of insulin hyper-secretion in response to glucose

Question: What about the “pathology in skin, intestine or liver” value ([1]; up to 100 μg/kg for up to 30 days) of the same substance?
Answer: no pathology was observed in the skin, intestine or liver

Question: And the “UPR activation when ER stress is induced with thapsigargin” value ([2]; 5 μM thapsigargin ± IL-22, 6 hours)?
Answer: increases UPR activation

Question: What about the “ER stress induced with palmitic acid” value ([2]; 0.1-0.5 mM palmitic acid ± IL-22, 24 hours) of the same substance?
Answer: inhibits ER stress

Question: What about the “lowest concentration with efficacy as suppressor of ER stress” value ([2]; MIN6 β-cells) of the same substance?
Answer: around 5 ng/mL

Question: What about the “UPR activation by the cytokine alone” value ([2]; no stressor) of the same substance?
Answer: does not appear to activate the UPR

Question: What about the “inhibition of ER stress initiated by cytokines or tunicamycin” value ([2]; pair-wise combinations of cytokines) of the same substance?
Answer: inhibit ER stress

Question: What about the “MIP2α mRNA” value ([3]; HFDIO islets cultured 24 h in 2.8 mM glucose ± 50 ng/mL IL-22) of the same substance?
Answer: reduced substantially

Question: What about the “acute islet ER stress (Xbp1-splicing, Hspa5 mRNA)” value [3, 4] of the same substance?
Answer: suppresses the acute islet oxidative stress-driven ER stress

Question: What about the “glucose and glucose plus GLP-1 stimulated insulin secretion” value [3, 4] of the same substance?
Answer: restores appropriate glucose and glucose plus GLP-1 stimulated insulin secretion

Question: And the proinsulin secretion ([3]; islets from HFDIO mice)?
Answer: proinsulin secretion ceased

Question: What about the “insulin hyper-secretion (GSIS)” value ([3]; islets from HFDIO mice, after culture) of the same substance?
Answer: returned to levels in non-obese islets

Question: What about the “ER stress, antioxidant gene expression and Nos2” value ([3]; islets from HFDIO mice, culture 24 hours) of the same substance?
Answer: reduced ER stress, increased antioxidant gene expression and decreased Nos2
